# Values quoted from earlier work in patent US4713385A, “Alkoxy and dialkoxyalkyl esters of dihydrolysergic acid and related compounds useful as 5HT receptor antagonists” (Eli Lilly and Company, priority 1985, dated 1987).
# Tests used:
# 5HT2 receptors [1] = details: effect mediated by 5HT2 receptors; in words
# 5HT2 receptors [2] = details: Garbrecht compounds; in words
# [3] = molecular target: vascular dopaminergic receptors
# [4] = molecular target: vascular histaminergic receptors
# [5] = molecular target: vascular alpha adrenergic receptors
smiles,measurement,setting,value
"CC(O)C(C)OC(=O)[C@@H]1C[C@@H]2c3cccc4c3c(cn4C(C)C)C[C@H]2N(C)C1 (stereo partly drawn) [LY53857, 1-isopropyl-6-methyl-8β-(1-methyl-2-hydroxy)propoxycarbonyl-5R-ergoline]",antagonism of vascular contraction to serotonin,5HT2 receptors [1],potent antagonist of vascular contraction to serotonin
same,peripheral serotonin antagonist activity against 5HT2 receptors,5HT2 receptors [2],most active peripheral serotonin antagonist
same,Kd,"[3]; Cohen et al. J.P.E.T., 227, 327 (1983), read-out: Kdissoc (vascular dopaminergic receptors)",~10 µM
same,affinity for vascular dopaminergic receptors,[3]; in words,minimal affinity
same,Kd,"[4]; Cohen et al. J.P.E.T., 227, 327 (1983), read-out: Kdissoc (vascular histaminergic receptors)",~10 µM
same,affinity for vascular histaminergic receptors,[4]; in words,minimal affinity
same,Kd,"[5]; Cohen et al. J.P.E.T., 227, 327 (1983), read-out: Kdissoc (vascular alpha adrenergic receptors)",~10 µM
same,affinity for vascular alpha adrenergic receptors,[5]; in words,minimal affinity
